Results taken from US20090270338A1, “DIARYL-CYCLYLALKYL DERIVATIVES AS CALCIUM CHANNEL BLOCKERS” (priority 2008, published 2009).

How the values were obtained:
[1] = biological target: T1, Human Cav2.2 channels (Homo sapiens, UniProt Q00975); test: Fluorescent assay for Cav2.2 channels using potassium depolarization (Table 2, In Vitro Activity, Cav 2.2 Activity); assay type: cell-based; conditions: for IC50: 30 mM K; for inhibition at 10 µM: read-out: % Inh at 10 μM; for inhibition at 30 µM: read-out: % Inh at 30 μM
T1 construct: expressed in transfected cells
T1 sequence (Q00975 whole entry): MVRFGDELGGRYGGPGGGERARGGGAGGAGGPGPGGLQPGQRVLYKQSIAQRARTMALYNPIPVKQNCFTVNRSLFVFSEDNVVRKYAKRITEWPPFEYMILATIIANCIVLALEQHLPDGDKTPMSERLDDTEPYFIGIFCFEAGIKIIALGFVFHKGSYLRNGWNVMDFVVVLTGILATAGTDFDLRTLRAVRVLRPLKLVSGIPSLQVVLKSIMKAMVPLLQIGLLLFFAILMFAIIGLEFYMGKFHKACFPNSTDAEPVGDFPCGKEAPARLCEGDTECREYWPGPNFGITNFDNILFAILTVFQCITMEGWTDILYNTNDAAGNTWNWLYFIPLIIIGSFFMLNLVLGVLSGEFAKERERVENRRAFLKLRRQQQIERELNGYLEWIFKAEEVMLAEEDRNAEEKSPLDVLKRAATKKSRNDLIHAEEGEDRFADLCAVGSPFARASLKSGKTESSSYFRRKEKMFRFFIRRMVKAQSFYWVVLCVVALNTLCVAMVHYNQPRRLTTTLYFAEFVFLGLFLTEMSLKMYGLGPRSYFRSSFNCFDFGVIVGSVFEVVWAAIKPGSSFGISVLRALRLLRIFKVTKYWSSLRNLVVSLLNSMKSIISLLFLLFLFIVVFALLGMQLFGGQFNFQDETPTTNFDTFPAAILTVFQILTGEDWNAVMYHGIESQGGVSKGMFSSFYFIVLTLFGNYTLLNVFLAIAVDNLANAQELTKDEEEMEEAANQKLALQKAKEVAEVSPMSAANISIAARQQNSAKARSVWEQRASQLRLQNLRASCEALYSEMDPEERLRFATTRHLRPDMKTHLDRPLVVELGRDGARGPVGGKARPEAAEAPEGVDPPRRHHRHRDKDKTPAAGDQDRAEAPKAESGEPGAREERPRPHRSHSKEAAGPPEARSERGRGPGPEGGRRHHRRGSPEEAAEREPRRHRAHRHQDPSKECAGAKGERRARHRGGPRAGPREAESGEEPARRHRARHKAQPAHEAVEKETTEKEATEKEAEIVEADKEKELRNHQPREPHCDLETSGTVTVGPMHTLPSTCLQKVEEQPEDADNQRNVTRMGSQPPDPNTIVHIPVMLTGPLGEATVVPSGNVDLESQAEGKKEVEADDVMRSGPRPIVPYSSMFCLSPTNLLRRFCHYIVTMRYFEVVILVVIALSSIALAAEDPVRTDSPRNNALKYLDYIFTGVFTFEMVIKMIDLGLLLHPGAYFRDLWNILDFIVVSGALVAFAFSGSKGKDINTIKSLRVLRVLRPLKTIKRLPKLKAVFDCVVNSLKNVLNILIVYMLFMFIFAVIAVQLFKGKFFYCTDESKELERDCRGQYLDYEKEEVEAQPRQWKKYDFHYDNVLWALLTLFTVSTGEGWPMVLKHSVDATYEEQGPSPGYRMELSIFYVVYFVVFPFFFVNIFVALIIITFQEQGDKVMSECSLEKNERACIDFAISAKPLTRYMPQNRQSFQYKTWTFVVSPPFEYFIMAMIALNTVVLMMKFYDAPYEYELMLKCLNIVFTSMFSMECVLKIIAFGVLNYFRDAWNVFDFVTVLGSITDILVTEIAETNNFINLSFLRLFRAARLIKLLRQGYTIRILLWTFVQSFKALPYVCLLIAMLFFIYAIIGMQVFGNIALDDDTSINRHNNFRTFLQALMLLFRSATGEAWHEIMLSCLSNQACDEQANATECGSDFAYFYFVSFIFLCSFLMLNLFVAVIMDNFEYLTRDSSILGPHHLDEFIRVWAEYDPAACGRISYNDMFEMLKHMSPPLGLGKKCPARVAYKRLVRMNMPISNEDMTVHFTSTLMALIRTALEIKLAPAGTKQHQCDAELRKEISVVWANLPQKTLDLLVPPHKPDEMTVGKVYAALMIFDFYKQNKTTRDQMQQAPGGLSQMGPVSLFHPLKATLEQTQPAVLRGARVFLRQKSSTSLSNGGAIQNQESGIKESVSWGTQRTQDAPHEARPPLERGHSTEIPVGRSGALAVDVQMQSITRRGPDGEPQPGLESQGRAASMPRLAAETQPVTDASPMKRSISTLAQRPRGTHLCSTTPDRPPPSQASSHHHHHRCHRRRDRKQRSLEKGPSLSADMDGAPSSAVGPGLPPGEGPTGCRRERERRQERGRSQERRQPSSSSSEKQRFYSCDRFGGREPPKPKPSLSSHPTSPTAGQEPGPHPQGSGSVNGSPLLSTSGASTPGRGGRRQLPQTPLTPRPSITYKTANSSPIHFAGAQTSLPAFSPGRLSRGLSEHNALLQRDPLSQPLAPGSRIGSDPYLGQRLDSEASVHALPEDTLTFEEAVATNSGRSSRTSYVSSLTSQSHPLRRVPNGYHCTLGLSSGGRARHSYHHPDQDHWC
T1 sequence (P54289 25-1103 partner): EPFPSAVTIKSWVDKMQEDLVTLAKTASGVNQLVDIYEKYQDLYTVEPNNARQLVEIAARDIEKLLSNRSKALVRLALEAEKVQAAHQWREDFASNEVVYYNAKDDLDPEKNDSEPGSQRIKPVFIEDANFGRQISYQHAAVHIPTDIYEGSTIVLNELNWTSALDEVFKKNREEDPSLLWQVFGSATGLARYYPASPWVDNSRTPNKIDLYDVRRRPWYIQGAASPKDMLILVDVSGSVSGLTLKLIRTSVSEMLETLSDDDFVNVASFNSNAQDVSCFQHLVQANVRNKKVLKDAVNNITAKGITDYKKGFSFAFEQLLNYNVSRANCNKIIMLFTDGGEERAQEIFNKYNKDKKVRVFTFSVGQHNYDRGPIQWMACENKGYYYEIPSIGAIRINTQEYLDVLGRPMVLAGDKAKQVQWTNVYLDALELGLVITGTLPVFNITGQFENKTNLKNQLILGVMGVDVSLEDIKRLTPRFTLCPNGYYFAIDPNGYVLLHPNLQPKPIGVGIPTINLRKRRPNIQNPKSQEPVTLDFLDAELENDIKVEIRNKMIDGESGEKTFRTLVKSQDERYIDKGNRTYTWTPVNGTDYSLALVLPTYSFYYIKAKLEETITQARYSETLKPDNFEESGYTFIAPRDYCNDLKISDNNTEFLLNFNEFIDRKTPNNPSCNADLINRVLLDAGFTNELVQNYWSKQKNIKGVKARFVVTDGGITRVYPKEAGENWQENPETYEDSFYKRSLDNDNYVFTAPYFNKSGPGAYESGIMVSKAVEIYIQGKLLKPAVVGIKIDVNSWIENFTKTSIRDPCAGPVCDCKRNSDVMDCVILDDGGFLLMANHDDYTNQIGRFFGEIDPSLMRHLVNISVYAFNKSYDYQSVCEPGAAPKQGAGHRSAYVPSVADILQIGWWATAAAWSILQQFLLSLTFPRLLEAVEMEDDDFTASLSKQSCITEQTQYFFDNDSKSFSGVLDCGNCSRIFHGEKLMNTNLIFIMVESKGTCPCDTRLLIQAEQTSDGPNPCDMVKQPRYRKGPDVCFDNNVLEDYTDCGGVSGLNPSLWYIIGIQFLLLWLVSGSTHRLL
T1 sequence (P54284 whole entry partner): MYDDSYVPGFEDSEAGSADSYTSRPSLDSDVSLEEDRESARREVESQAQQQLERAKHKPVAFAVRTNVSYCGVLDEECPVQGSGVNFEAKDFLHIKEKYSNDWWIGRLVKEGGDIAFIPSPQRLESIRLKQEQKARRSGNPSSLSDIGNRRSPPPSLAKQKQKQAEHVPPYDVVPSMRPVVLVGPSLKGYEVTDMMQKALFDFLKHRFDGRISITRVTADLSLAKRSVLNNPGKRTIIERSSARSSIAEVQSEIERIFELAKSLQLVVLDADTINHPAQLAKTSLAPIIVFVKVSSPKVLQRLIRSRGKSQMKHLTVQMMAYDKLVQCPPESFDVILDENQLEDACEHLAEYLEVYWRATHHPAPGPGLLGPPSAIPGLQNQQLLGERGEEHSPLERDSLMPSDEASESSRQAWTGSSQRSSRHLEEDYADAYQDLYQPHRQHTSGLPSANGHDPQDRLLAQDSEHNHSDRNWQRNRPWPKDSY
Source text: Human Cav2.2 channels were stably expressed in HEK293 cells along with alpha2-delta and beta subunits of voltage-gated calcium channels. An inwardly rectifying potassium channel (Kir2.3) was also expressed in these cells to allow more precise control of the cell membrane potential by extracellular potassium concentration. At low bath potassium concentration, the membrane potential is relatively negative, and is depolarized as the bath potassium concentration is raised. In this way, the bath potassium concentration can be used to regulate the voltage-dependent conformations of the channels. Compounds are incubated with cells in the presence of low (4 mM) potassium or elevated (12, 25 or 30 mM) potassium to determine the affinity for compound block of resting (closed) channels at 4 mM potassium or affinity for block of open and inactivated channels at 12, 25 or 30 mM potassium. After the incubation period, Cav2.2 channel opening is triggered by addition of higher concentration of potassium (70 mM final concentration) to further depolarize the cell. The degree of state-dependent block can be estimated from the inhibitory potency of compounds after incubation in different potassium concentrations.
Calcium influx through Cav2.2 channels is determined using a calcium sensitive fluorescent dye in combination with a fluorescent plate reader. Fluorescent changes were measured with either a VIPR (Aurora Instruments) or FLIPR (Molecular Devices) plate reader.
1. Seed cells in Poly-D-Lysine Coated 96 or 384-well plate and keep in a 37° C.-10% CO2 incubator overnight 2. Remove media, wash cells with 0.2 mL (96-well plate) or 0.05 mL (384-well plate) Dulbecco's Phosphate Buffered Saline (D-PBS) with calcium & magnesium (Invitrogen; 14040) 3. Add 0.1 mL (96-well plate) or 0.05 mL (384-well plate) of 4 μM fluor-4 (Molecular Probes; F-14202) and 0.02% Pluronic acid (Molecular Probes; P-3000) prepared in D-PBS with calcium & magnesium (Invitrogen; 14040) supplemented with 10 mM Glucose & 10 mM Hepes/NaOH; pH 7.4 4. Incubate in the dark at 25° C. for 60-70 min 5. Remove dye, wash cells with 0.1 mL (96-well plate) or 0.06 mL (384-well plate) of 4, 12, 25, or 30 mM Potassium Pre-polarization Buffer (PPB) 6. Add 0.1 mL (96-well plate) or 0.03 mL (384-well plate) of 4, 12, 25, 30 mM PPB with or without test compound 7. Incubate in the dark at 25° C. for 30 min 8. Read cell plate on VIPR instrument, Excitation=480 nm, Emission=535 nm 9. With VIPR continuously reading, add 0.1 mL (96-well plate) or 0.03 mL (384-well plate) of Depolarization Buffer (DB), which is 2× the final assay concentration, to the cell plate.

[2] = test system: T-type over L-type channels; conditions: cited from earlier work

IC50 [1] | inhibition at 10 µM [1] | inhibition at 30 µM [1] | Compound | % Inh at 10 μM [1] | % Inh at 30 μM [1] | fold selective for T-type over L-type channels [2]
 | 42% | 65% | CC(C)(C)N1CCN(C(=O)C2(NC(=O)CC(c3ccccc3)c3ccccc3)CCCCC2)CC1 [Compound 1, N-(1-(4-tert-butylpiperazine-1-carbonyl)cyclohexyl)-3,3-diphenylpropanamide] |  |  | 
 | 67% | 92% | Cc1ccccc1C(CC(=O)NC1(C(=O)N2CCN(C(C)(C)C)CC2)CCCCC1)c1ccccc1C [Compound 2, N-(1-(4-tert-butylpiperazine-1-carbonyl)cyclohexyl)-3,3-dio-tolylpropanamide] |  |  | 
0.44 µM | 95% | 96% | Cc1ccccc1C(CC(=O)NC1(C(=O)N2CCN(c3ccccc3)CC2)CCCCC1)c1ccccc1C [Compound 3, N-(1-(4-phenylpiperazine-1-carbonyl)cyclohexyl)-3,3-dio-tolylpropanamide] |  |  | 
0.34 µM | 80% | 90% | O=C(CC(c1ccccc1)c1ccccc1)NC1(C(=O)N2CCN(c3ccccc3)CC2)CCCCC1 [Compound 4, 3,3-diphenyl-N-(1-(4-phenylpiperazine-1-carbonyl)cyclohexyl)propanamide] |  |  | 
0.19 µM | 99% | 102% | O=C(CC(c1ccccc1)c1ccccc1)NC1(C(=O)NCc2cccc(C(F)(F)F)c2)CCCCC1 [Compound 7, 1-(3,3-diphenylpropanamido)-N-(3-(trifluoromethyl)benzyl)cyclohexanecar-boxamide] |  |  | 
0.19 µM | 99% | 102% | O=C(CC(c1ccccc1)c1ccccc1)NC1(C(=O)NCc2ccc(F)cc2)CCCCC1 [Compound 8, 1-(3,3-diphenylpropanamido)-N-(4-fluorobenzyl)cyclohexanecarboxamide] |  |  | 
0.17 µM | 97% | 102% | COc1ccc(CNC(=O)C2(NC(=O)CC(c3ccccc3)c3ccccc3)CCCCC2)cc1 [Compound 9, 1-(3,3-diphenylpropanamido)-N-(4-methoxybenzyl)cyclohexane carboxamide] |  |  | 
0.43 µM | 96% | 101% | O=C(CC(c1ccccc1)c1ccccc1)NC1(C(=O)NCc2ccc(F)cc2F)CCCCC1 [Compound 10, N-(2,4-difluorobenzyl)-1-(3,3-diphenylpropanamido)cyclohexanecarboxamide] |  |  | 
0.69 µM | 93% | 101% | O=C(CC(c1ccccc1)c1ccccc1)NC1(C(=O)N2CCN(c3ccc(Cl)cc3)CC2)CCCCC1 [Compound 11, N-(1-(4-(4-chlorophenyl)piperazine-1-carbonyl)cyclohexyl)-3,3-diphenylpropanamide] |  |  | 
0.37 µM | 95% | 98% | Cc1ccc(N2CCN(C(=O)C3(NC(=O)CC(c4ccccc4)c4ccccc4)CCCCC3)CC2)cc1C [Compound 12, N-(1-(4-(3,4-dimethylphenyl)piperazine-1-carbonyl)cyclohexyl)-3,3-diphenylpropanamide] |  |  | 
0.59 µM | 96% | 95% | O=C(CC(c1ccccc1)c1ccccc1)NC1(C(=O)N2CCN(c3ccc(C(F)(F)F)cc3)CC2)CCCCC1 [Compound 13, 3,3-diphenyl-N-(1-(4-(4-(trifluoromethyl)phenyl)piperazine-1-carbonyl)cyclohexyl)propanamide] |  |  | 
0.32 µM | 81% | 86% | O=C(CC(c1ccccc1)c1ccccc1)NC1(C(=O)N2CCN(c3ccc(F)cc3F)CC2)CCCCC1 [Compound 14, N-(1-(4-(2,4-difluorophenyl)piperazine-1-carbonyl)cyclohexyl)-3,3-diphenylpropanamide] |  |  | 
0.33 µM | 72% | 81% | O=C(CC(c1ccccc1)c1ccccc1)NC1(C(=O)N2CCN(c3cccc(F)c3)CC2)CCCCC1 [Compound 15, N-(1-(4-(3-fluorophenyl)piperazine-1-carbonyl)cyclohexyl)-3,3-diphenylpropanamide] |  |  | 
2.75 µM | 81% | 85% | Cc1ccnc(N2CCN(C(=O)C3(NC(=O)CC(c4ccccc4)c4ccccc4)CCCCC3)CC2)c1 [Compound 16, N-(1-(4-(4-methylpyridin-2-yl)piperazine-1-carbonyl)cyclohexyl)-3,3-diphenylpropanamide] |  |  | 
 | 86% | 96% | CS(=O)(=O)c1ccc(CNC(=O)C2(NC(=O)CC(c3ccccc3)c3ccccc3)CCCCC2)cc1 [Compound 17, 1-(3,3-diphenylpropanamido)-N-(4-(methylsulfonyl)benzyl)cyclohexane carboxamide] |  |  | 
 | 87% | 97% | O=C(CC(c1ccccc1)c1ccccc1)NC1(C(=O)NCc2ccc(O)cc2)CCCCC1 [Compound 18, 1-(3,3-diphenylpropanamido)-N-(4-hydroxybenzyl)cyclohexane carboxamide] |  |  | 
 | 62% | 93% | Cc1cnc(CNC(=O)C2(NC(=O)CC(c3ccccc3)c3ccccc3)CCCCC2)cn1 [Compound 19, 1-(3,3-diphenylpropanamido)-N-((5-methylpyrazin-2-yl)methyl)cyclohexanecarboxamide] |  |  | 
 | 71% | 86% | Cc1cc(CNC(=O)C2(NC(=O)CC(c3ccccc3)c3ccccc3)CCCCC2)no1 [Compound 20, 1-(3,3-diphenylpropanamido)-N-((5-methylisoxazol-3-yl)methyl)cyclohexanecarboxamide] |  |  | 
 | 14% | 51% | Cc1cnccc1CNC(=O)C1(NC(=O)CC(c2ccccc2)c2ccccc2)CCCCC1 [Compound 21, 1-(3,3-diphenylpropanamido)-N-((3-methylpyridin-4-yl)methyl)cyclohexanecarboxamide] |  |  | 
 | 55% | 77% | O=C(CC(c1ccccc1)c1ccccc1)NC1(C(=O)NCc2nccs2)CCCCC1 [Compound 22, 1-(3,3-diphenylpropanamido)-N-(thiazol-2-ylmethyl)cyclohexane carboxamide] |  |  | 
 | 81% | 88% | Cc1cccnc1CNC(=O)C1(NC(=O)CC(c2ccccc2)c2ccccc2)CCCCC1 [Compound 23, 1-(3,3-diphenylpropanamido)-N-((3-methylpyridin-2-yl)methyl)cyclohexanecarboxamide] |  |  | 
 |  |  | COCC(=O)O[C@]1(CCN(C)CCCc2nc3ccccc3[nH]2)CCc2cc(F)ccc2[C@@H]1C(C)C [Mibefradil] |  |  | 10-30 fold

Compound | IC50 [1] | inhibition at 10 µM [1] | inhibition at 30 µM [1] | % Inh at 10 μM [1] | % Inh at 30 μM [1] | fold selective for T-type over L-type channels [2]
3,3-diphenyl-N-(1-(4-phenylpiperazine- 1-carbonyl)cyclohexyl)propanamide [Compound 5] | 0.38 µM |  |  | 92% | 84% | 
N-(1-(4-(4-fluorophenyl)piperazine-1- carbonyl)cyclohexyl)-3,3- diphenylpropanamide [Compound 6] | 0.28 µM |  |  | 99% | 100% | 
